One assay concerns rabbit skeletal myofibrils (fast skeletal myofibrils). Put plainly: Activation of fast skeletal myofibrils (PUMA assay, PK/LDH-coupled ATPase at pCa25). The class given is biochemical. The settings on record: AC1.4 determined according to the procedure of Example 39; reported as class symbols. In outline: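 ATPase activity of Triton-washed rabbit skeletal myofibrils, roughly 90% fast fibres, tracked by NADH loss at 340 nm through a PK/LDH-coupled ADP-regenerating system. Calcium set to 25% of maximal activity (pCa25), in PIPES 12 mM pH 6.8 with 2 mM MgCl2 and 1 mM DTT; AC1.4 reported.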
Turning to `CC(C)(CNc1ccc(C(=O)N[C@H](Cc2ccccc2)C(N)=O)nn1)c1ccc(F)cc1` [N-((1R)-1-carbamoyl-2-phenylethyl)(6-{[2-(4-fluorophenyl)-2-methylpropyl]amino}pyridazin-3-yl)carboxamide], the “Mean AC1.4” value was “C (C=10-20 uM)”.
Regarding `CC(C)(CNc1ccc(C(=O)N[C@@H](CO)C(N)=O)nn1)c1ccc(F)cc1` [N-((1S)-1-carbamoyl-2-hydroxyethyl)(6-{[2-(4-fluorophenyl)-2-methylpropyl]amino}pyridazin-3-yl)carboxamide], the “Mean AC1.4” value is listed as “D (D=>20 uM)”.
As to `CC(C)(CNc1ccc(C(=O)N[C@@H](Cc2ccccc2)C(N)=O)nn1)c1ccc(F)cc1` [N-((1S)-1-carbamoyl-2-phenylethyl)(6-{[2-(4-fluorophenyl)-2-methylpropyl]amino}pyridazin-3-yl)carboxamide], the “Mean AC1.4” value was “C (C=10-20 uM)”.

Staying with this assay, now noted: median AC1.4 class, procedure of Example 39.
As to `CC(C)(C)[S+]([O-])NCc1cnc(-c2ccc(NCC3(c4ncccc4F)CCC3)nn2)s1` (stereo not drawn) [N-((2-(6-((1-(3-fluoropyridin-2-yl)cyclobutyl)methylamino)pyr-idazin-3-yl)thiazol-5-yl)methyl)-2-methylpropane-2-sulfinamide], the “Mean AC1.4” value is recorded as “B (B=1-10 uM)”.
As to `O=C(NC[C@@H](O)CO)c1cnc(-c2ccc(NCC3(c4ncccc4F)CCC3)nn2)s1` [N-((2R)-2,3-dihydroxypropyl){2-[6-({[(3-fluoro(2-pyridyl))cyclobutyl]methyl}ami-no)pyridazin-3-yl](1,3-thiazol-5-yl)}carboxamide], the “Mean AC1.4” value is “B (B=1-10 uM)”.
The same measure, in the same setting: the value for `O=C(NC[C@@H](O)CO)c1ccc(F)c(-c2ccc(NC[C@]3(c4ncccc4F)C[C@H](F)C3)nn2)c1` [N-((2R)-2,3-dihydroxypropyl){4-fluoro-3-[6-({[3-fluoro-1-(3-fluoro(2-pyridyl))cyclobutyl]methyl}ami-no)pyridazin-3-yl]phenyl}carboxamide] was “A (A=<1 uM)”.
As for `O=C(NC[C@H](O)CO)c1cnc(-c2ccc(NCC3(c4ncccc4F)CCC3)nn2)s1` [N-((2S)-2,3-dihydroxypropyl){2-[6-({[(3-fluoro(2-pyridyl))cyclobutyl]methyl}ami-no)pyridazin-3-yl](1,3-thiazol-5-yl)}carboxamide], the “Mean AC1.4” value is listed as “A (A=<1 uM)”.
Same read-out and setting: the value for `O=C(NC[C@H](O)CO)c1ccc(F)c(-c2ccc(NC[C@]3(c4ncccc4F)C[C@H](F)C3)nn2)c1` [N-((2S)-2,3-dihydroxypropyl){4-fluoro-3-[6-({[3-fluoro-1-(3-fluoro(2-pyridyl))cyclobutyl]methyl}ami-no)pyridazin-3-yl]phenyl}carboxamide] was “A (A=<1 uM)”.

The same assay, now with this note: median AC1.4 reported as class; procedure of Example 39.
With `N#Cc1cn[nH]c1NC(=O)c1ccc(NCC2(c3ncccc3F)CCC2)nn1` [N-(4-cyanopyrazol-5-yl)[6-({[(3-fluoro(2-pyridyl))cyclobutyl]methyl}ami-no)pyridazin-3-yl]carboxamide], the “Mean AC1.4” value is reported as “B (B=1-10 uM)”.
On the same count and under the same terms, the value for `O=C(N[C@@H]1CCNC1=O)c1ccc(NCC2(c3ncccc3F)CCC2)nn1` [N-((3R)-2-oxopyrrolidin-3-yl)[6-({[(3-fluoro(2-pyridyl))cyclobutyl]methyl}ami-no)pyridazin-3-yl]carboxamide] was “D (D=>20 uM)”; that for `O=C1CC[C@@H](NC(=O)c2ccc(NCC3(c4ncccc4F)CCC3)nn2)CN1` [N-((3R)-6-oxo(3-piperidyl))[6-({[(3-fluoro(2-pyridyl))cyclobutyl]methyl}ami-no)pyridazin-3-yl]carboxamide] was “D (D=>20 uM)”.
On the same count and under the same terms, the value for `O=C(N[C@@H]1CCOC1)c1cccc(-c2ccc(NC[C@]3(c4ncccc4F)C[C@H](F)C3)nn2)c1` [N-((3R)oxolan-3-yl){3-[6-({[3-fluoro-1-(3-fluoro(2-pyridyl))cyclobutyl]methyl}ami-no)pyridazin-3-yl]phenyl}carboxamide] was “B (B=1-10 uM)”.

(Values after patent publication US10076519B2 (CYTOKINETICS, INC., priority 2010, dated 2018).)
